The source of these data is BindingDB's records for PubMed 20068177 (Wyeth Research).

For the assay, the target named is Phosphatidylinositol 3-kinase regulatory subunit alpha/4,5-bisphosphate 3-kinase catalytic subunit alpha isoform (Homo sapiens, UniProt P27986+P42336). The assay can be described thus: Inhibition of recombinant human full-length N-terminal His6-tagged p110alpha/full length untagged human p85alpha expressed in baculovirus infected Sf21 insect cells using PIP2 as substrate measured after 15 to 30 mins by fluorescence polarization assay.
Sequence of Phosphatidylinositol 3-kinase regulatory subunit alpha/4,5-bisphosphate 3-kinase catalytic subunit alpha isoform (P27986 whole entry, canonical isoform): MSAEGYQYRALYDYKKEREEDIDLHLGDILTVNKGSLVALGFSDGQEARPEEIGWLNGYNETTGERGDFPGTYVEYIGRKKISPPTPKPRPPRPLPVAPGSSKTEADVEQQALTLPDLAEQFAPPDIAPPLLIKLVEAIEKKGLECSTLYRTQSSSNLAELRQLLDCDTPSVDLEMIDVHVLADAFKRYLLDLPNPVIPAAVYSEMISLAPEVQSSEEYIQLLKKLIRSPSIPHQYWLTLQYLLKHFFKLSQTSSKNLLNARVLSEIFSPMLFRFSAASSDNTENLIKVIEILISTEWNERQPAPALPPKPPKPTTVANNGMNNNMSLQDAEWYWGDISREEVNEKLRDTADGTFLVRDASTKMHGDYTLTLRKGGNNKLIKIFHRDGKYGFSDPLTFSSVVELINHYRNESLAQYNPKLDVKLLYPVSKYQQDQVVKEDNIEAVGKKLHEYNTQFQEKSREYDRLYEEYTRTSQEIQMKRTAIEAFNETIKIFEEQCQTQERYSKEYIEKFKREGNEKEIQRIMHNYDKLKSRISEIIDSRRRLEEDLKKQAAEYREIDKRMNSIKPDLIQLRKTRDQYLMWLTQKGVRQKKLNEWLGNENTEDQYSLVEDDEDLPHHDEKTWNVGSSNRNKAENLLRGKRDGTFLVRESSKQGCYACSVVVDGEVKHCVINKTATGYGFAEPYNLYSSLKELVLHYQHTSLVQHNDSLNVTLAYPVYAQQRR
Sequence of Phosphatidylinositol 3-kinase regulatory subunit alpha/4,5-bisphosphate 3-kinase catalytic subunit alpha isoform (P42336 whole entry, canonical isoform): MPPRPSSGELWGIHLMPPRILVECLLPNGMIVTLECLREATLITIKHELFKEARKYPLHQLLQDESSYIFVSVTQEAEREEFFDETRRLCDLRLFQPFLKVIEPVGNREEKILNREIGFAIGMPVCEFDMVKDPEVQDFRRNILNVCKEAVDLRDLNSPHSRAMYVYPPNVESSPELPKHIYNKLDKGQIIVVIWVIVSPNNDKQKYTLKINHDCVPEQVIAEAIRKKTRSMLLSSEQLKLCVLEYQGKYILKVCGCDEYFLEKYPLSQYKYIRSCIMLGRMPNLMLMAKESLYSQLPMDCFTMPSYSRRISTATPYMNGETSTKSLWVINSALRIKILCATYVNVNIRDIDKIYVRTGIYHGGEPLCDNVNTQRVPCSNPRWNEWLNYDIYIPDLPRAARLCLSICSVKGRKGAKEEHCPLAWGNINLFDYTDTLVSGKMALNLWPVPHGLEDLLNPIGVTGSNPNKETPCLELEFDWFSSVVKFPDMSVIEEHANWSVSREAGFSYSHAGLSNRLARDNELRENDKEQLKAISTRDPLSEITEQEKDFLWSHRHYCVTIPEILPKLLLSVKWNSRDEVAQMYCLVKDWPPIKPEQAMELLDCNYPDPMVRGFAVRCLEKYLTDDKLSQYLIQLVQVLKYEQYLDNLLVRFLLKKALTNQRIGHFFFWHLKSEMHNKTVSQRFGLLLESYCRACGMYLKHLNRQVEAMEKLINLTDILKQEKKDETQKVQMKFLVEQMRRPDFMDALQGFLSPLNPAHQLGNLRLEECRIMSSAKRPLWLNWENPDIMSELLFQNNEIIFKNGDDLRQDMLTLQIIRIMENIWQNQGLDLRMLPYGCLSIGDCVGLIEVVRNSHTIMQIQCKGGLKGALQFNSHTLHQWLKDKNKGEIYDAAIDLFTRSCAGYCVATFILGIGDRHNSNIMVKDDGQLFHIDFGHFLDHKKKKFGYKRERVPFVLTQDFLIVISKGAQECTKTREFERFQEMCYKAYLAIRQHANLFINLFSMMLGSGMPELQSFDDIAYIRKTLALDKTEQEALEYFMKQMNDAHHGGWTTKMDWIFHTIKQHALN

`CNC(=O)Nc1ccc(-c2nc(N3CC4CCC(C3)O4)c3cnn(C4CCC5(CC4)OCCO5)c3n2)cc1` [1-(4-(4-(8-oxa-3-azabicyclo[3.2.1]octan-3-yl)-1-(1,4-dioxaspiro[4.5]decan-8-yl)-1H-pyrazolo[3,4-d]pyrimidin-6-yl)phenyl)-3-methylurea]: the 50% inhibitory concentration (IC50) came out at 1180 nM.
